Experimental data published in ChEMBL document CHEMBL6127119 (J Med Chem, 2024).
Converted amounts (≈) assume the structure as drawn.

Key:
Format in all cases: functional
Details in all cases: time 16-24 hrs
Staphylococcus aureus [1] = assay: Antibacterial activity against vancomycin-intermediate Staphylococcus aureus incubated for 16 to 24 hrs by CLSI based broth microdilution method
Klebsiella pneumoniae = assay: Antibacterial activity against Klebsiella pneumoniae clinical isolate incubated for 16 to 24 hrs by CLSI based broth microdilution method
Acinetobacter baumannii = assay: Antibacterial activity against Carbapenem-resistant Acinetobacter baumannii clinical isolate incubated for 16 to 24 hrs by CLSI based broth microdilution method
Enterococcus faecium [2] = assay: Antibacterial activity against vancomycin-resistant Enterococcus faecium harboring VanM phenotype incubated for 16 to 24 hrs by CLSI based broth microdilution method
Pseudomonas aeruginosa = assay: Antibacterial activity against Pseudomonas aeruginosa PAO1 incubated for 16 to 24 hrs by CLSI based broth microdilution method
Staphylococcus aureus [3] = assay: Antibacterial activity against methicillin-susceptible Staphylococcus aureus incubated for 16 to 24 hrs by CLSI based broth microdilution method
Enterococcus faecium [4] = assay: Antibacterial activity against vancomycin-resistant Enterococcus faecium harboring VanB phenotype incubated for 16 to 24 hrs by CLSI based broth microdilution method
Enterococcus faecium [5] = assay: Antibacterial activity against vancomycin-resistant Enterococcus faecium harboring VanA phenotype incubated for 16 to 24 hrs by CLSI based broth microdilution method
Escherichia coli = assay: Antibacterial activity against Escherichia coli AB1157 incubated for 16 to 24 hrs by CLSI based broth microdilution method

Structure (SMILES)	MIC (Staphylococcus aureus [1]) [mg/L]	MIC (Klebsiella pneumoniae) [mg/L]	MIC (Acinetobacter baumannii) [mg/L]	MIC (Enterococcus faecium [2]) [mg/L]	MIC (Pseudomonas aeruginosa) [mg/L]	MIC (Staphylococcus aureus [3]) [mg/L]	MIC (Enterococcus faecium [4]) [mg/L]	MIC (Enterococcus faecium [5]) [mg/L]	MIC (Escherichia coli) [mg/L]
CC(C)C[C@@H](N)C(=O)N[C@H]1C(=O)N[C@@H](CC(N)=O)C(=O)N[C@H]2C(=O)N[C@H]3C(=O)N[C@H](C(=O)N[C@H](C(=O)NCc4ccc(-c5ccc(CN)cc5)cc4)c4cc(O)cc(O)c4-c4cc3ccc4O)[C@H](O)c3ccc(c(Cl)c3)Oc3cc2cc(c3O[C@@H]2O[C@H](CO)[C@@H](O)[C@H](O)[C@H]2O[C@H]2C[C@](C)(N)[C@H](O)[C@H](C)O2)Oc2ccc(cc2Cl)[C@H]1O	1 (≈ 0.614 µM)	> 128	128 (≈ 78.6 µM)	8 (≈ 4.91 µM)	> 128	≤ 0.063	8 (≈ 4.91 µM)	8 (≈ 4.91 µM)	16 (≈ 9.82 µM)
CC(C)C[C@@H](N)C(=O)N[C@H]1C(=O)N[C@@H](CC(N)=O)C(=O)N[C@H]2C(=O)N[C@H]3C(=O)N[C@H](C(=O)N[C@H](C(=O)NCCOCCOCCN)c4cc(O)cc(O)c4-c4cc3ccc4O)[C@H](O)c3ccc(c(Cl)c3)Oc3cc2cc(c3O[C@@H]2O[C@H](CO)[C@@H](O)[C@H](O)[C@H]2O[C@H]2C[C@](C)(N)[C@H](O)[C@H](C)O2)Oc2ccc(cc2Cl)[C@H]1O	4 (≈ 2.56 µM)	> 128	> 128	64 (≈ 40.9 µM)	> 128	0.5 (≈ 0.319 µM)	64 (≈ 40.9 µM)	64 (≈ 40.9 µM)	64 (≈ 40.9 µM)
CC(C)C[C@@H](N)C(=O)N[C@H]1C(=O)N[C@@H](CC(N)=O)C(=O)N[C@H]2C(=O)N[C@H]3C(=O)N[C@H](C(=O)N[C@H](C(=O)NCCCCNC(=N)N)c4cc(O)cc(O)c4-c4cc3ccc4O)[C@H](O)c3ccc(c(Cl)c3)Oc3cc2cc(c3O[C@@H]2O[C@H](CO)[C@@H](O)[C@H](O)[C@H]2O[C@H]2C[C@](C)(N)[C@H](O)[C@H](C)O2)Oc2ccc(cc2Cl)[C@H]1O	2 (≈ 1.29 µM)	> 128	128 (≈ 82.7 µM)	64 (≈ 41.4 µM)	128 (≈ 82.7 µM)	1 (≈ 0.646 µM)	32 (≈ 20.7 µM)	32 (≈ 20.7 µM)	8 (≈ 5.17 µM)
CC(C)C[C@@H](N)C(=O)N[C@H]1C(=O)N[C@@H](CC(N)=O)C(=O)N[C@H]2C(=O)N[C@H]3C(=O)N[C@H](C(=O)N[C@H](C(=O)NCCCCN)c4cc(O)cc(O)c4-c4cc3ccc4O)[C@H](O)c3ccc(c(Cl)c3)Oc3cc2cc(c3O[C@@H]2O[C@H](CO)[C@@H](O)[C@H](O)[C@H]2O[C@H]2C[C@](C)(N)[C@H](O)[C@H](C)O2)Oc2ccc(cc2Cl)[C@H]1O	8 (≈ 5.31 µM)	> 128	> 128	128 (≈ 85 µM)	> 128	0.5 (≈ 0.332 µM)	128 (≈ 85 µM)	64 (≈ 42.5 µM)	32 (≈ 21.3 µM)
CC(C)C[C@@H](N)C(=O)N[C@H]1C(=O)N[C@@H](CC(N)=O)C(=O)N[C@H]2C(=O)N[C@H]3C(=O)N[C@H](C(=O)N[C@H](C(=O)O)c4cc(O)c(CNCCCCCCCCN)c(O)c4-c4cc3ccc4O)[C@H](O)c3ccc(c(Cl)c3)Oc3cc2cc(c3O[C@@H]2O[C@H](CO)[C@@H](O)[C@H](O)[C@H]2O[C@H]2C[C@](C)(N)[C@H](O)[C@H](C)O2)Oc2ccc(cc2Cl)[C@H]1O	4 (≈ 2.51 µM)	> 128	128 (≈ 80.4 µM)	128 (≈ 80.4 µM)	128 (≈ 80.4 µM)	4 (≈ 2.51 µM)	64 (≈ 40.2 µM)	128 (≈ 80.4 µM)	128 (≈ 80.4 µM)
CC(C)C[C@@H](N)C(=O)N[C@H]1C(=O)N[C@@H](CC(N)=O)C(=O)N[C@H]2C(=O)N[C@H]3C(=O)N[C@H](C(=O)N[C@H](C(=O)NCCNC(=N)N)c4cc(O)cc(O)c4-c4cc3ccc4O)[C@H](O)c3ccc(c(Cl)c3)Oc3cc2cc(c3O[C@@H]2O[C@H](CO)[C@@H](O)[C@H](O)[C@H]2O[C@H]2C[C@](C)(N)[C@H](O)[C@H](C)O2)Oc2ccc(cc2Cl)[C@H]1O	2 (≈ 1.32 µM)	> 128	128 (≈ 84.2 µM)	32 (≈ 21.1 µM)	> 128	0.5 (≈ 0.329 µM)	128 (≈ 84.2 µM)	32 (≈ 21.1 µM)	32 (≈ 21.1 µM)
Cc1ccc(-c2ccc(CNC(=O)[C@H]3NC(=O)[C@H]4NC(=O)[C@H](NC(=O)[C@@H]5NC(=O)[C@H](CC(N)=O)NC(=O)[C@H](NC(=O)[C@H](N)CC(C)C)[C@H](O)c6ccc(c(Cl)c6)Oc6cc5cc(c6O[C@@H]5O[C@H](CO)[C@@H](O)[C@H](O)[C@H]5O[C@H]5C[C@](C)(N)[C@H](O)[C@H](C)O5)Oc5ccc(cc5Cl)[C@H]4O)c4ccc(O)c(c4)-c4c(O)cc(O)cc43)cc2)cc1	0.5 (≈ 0.31 µM)	> 128	> 128	8 (≈ 4.96 µM)	> 128	0.125 (≈ 0.0774 µM)	2 (≈ 1.24 µM)	8 (≈ 4.96 µM)	128 (≈ 79.3 µM)
CN[C@H](CC(C)C)C(=O)N[C@H]1C(=O)N[C@@H](CC(N)=O)C(=O)N[C@H]2C(=O)N[C@H]3C(=O)N[C@H](C(=O)N[C@H](C(=O)N[C@H](CCCNC(=N)N)C(N)=O)c4cc(O)cc(O)c4-c4cc3ccc4O)[C@H](O)c3ccc(c(Cl)c3)Oc3cc2cc(c3O[C@@H]2O[C@H](CO)[C@@H](O)[C@H](O)[C@H]2O[C@H]2C[C@](C)(N)[C@H](O)[C@H](C)O2)Oc2ccc(cc2Cl)[C@H]1O	1 (≈ 0.623 µM)	128 (≈ 79.8 µM)	32 (≈ 19.9 µM)	32 (≈ 19.9 µM)	> 128	0.5 (≈ 0.312 µM)	16 (≈ 9.97 µM)	8 (≈ 4.99 µM)	8 (≈ 4.99 µM)
CN[C@H](CC(C)C)C(=O)N[C@H]1C(=O)N[C@@H](CC(N)=O)C(=O)N[C@H]2C(=O)N[C@H]3C(=O)N[C@H](C(=O)N[C@H](C(=O)O)c4cc(O)c(CNCCCCCCCCN)c(O)c4-c4cc3ccc4O)[C@H](O)c3ccc(c(Cl)c3)Oc3cc2cc(c3O[C@@H]2O[C@H](CO)[C@@H](O)[C@H](O)[C@H]2O[C@H]2C[C@](C)(N)[C@H](O)[C@H](C)O2)Oc2ccc(cc2Cl)[C@H]1O	8 (≈ 4.98 µM)	> 128	128 (≈ 79.7 µM)	128 (≈ 79.7 µM)	128 (≈ 79.7 µM)	4 (≈ 2.49 µM)	32 (≈ 19.9 µM)	128 (≈ 79.7 µM)	128 (≈ 79.7 µM)
